Results as given in ChEMBL document CHEMBL1201862, “PubChem BioAssay data set” (2004).
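Exposure lasted 48 hours, with cells grown in 96-well plates and compounds tested at five concentrations. GI50 marks 50% less growth.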 Activity calls are given as the source filed them. No stated cut-off is given here; in the data, active = GI50 up to about 1.1 µM and inactive = higher. Where a SMILES comes first, the peptide text is derived from it. [ ]: non-standard residue; d: D form. The star is where a group is joined. ξ: configuration not given here. X38 = O=C(OCc1ccccc1)[C@@H]1CCC[C@H]1N*; Fmoc = O=C(OCC1c2ccccc2-c2ccccc21)*; ξW = NC(Cc1c[nH]c2ccccc12)C(=O)O; ξF = NC(Cc1ccccc1)C(=O)O; Boc = CC(C)(C)OC(=O)*; ξK = NCCCCC(N)C(=O)O; ξT = CC(O)C(N)C(=O)O; tBu = CC(C)(C)*

Key:
Experiment in all cases: inhibition of tumour cell growth, NCI panel, 48 h
[1] = system: MDA-N
[2] = system: DLD-1
[3] = system: DMS-114
[4] = system: HOP-18
[5] = system: M19-MEL
[6] = system: SNB-78
[7] = system: DMS-273
[8] = system: LXFL 529

Q: Which GI50 [1] does the source give for `N#Cc1c(N)nc2[nH]nc(N)c2c1-c1ccc(Cl)cc1` here?
A: 4.22 µM (inactive)

Q: For `COC(=O)[C@@H]1c2c(oc3cc(CO)cc(O)c3c2=O)C=C[C@H]1O`, which GI50 [1] is on record?
A: 4.59 µM (inactive)

Q: Which GI50 [1] does the source give for `CNC(=O)/C(C#N)=C(\N)N1CCCC1` here?
A: > 100 µM (inactive)

Q: How did the GI50 [2] turn out when `CCCCSC1CCSc2c1ccc1ccccc21` (stereo unspecified) was run?
A: 78.9 µM (inactive)

Q: And the GI50 [3]?
A: > 100 µM (inactive)

Q: And the GI50 [4]?
A: > 100 µM (inactive)

Q: What about the GI50 [5] of the same compound?
A: > 100 µM (inactive)

Q: And the GI50 [6]?
A: > 100 µM (inactive)

Q: `COc1ccc(/C=C(/C#N)C(N)=O)cc1OC` was tested. Which GI50 [1] did it give?
A: > 100 µM (inactive)

Q: How did the GI50 [1] turn out when `CC(=O)O[C@H]1C[C@H]2[C@@H](OC(C)=O)/C=C3\C[C@](C)(C(=O)[C@H](O)C(=C1C)C2(C)C)[C@@H](O)C[C@@H]3OC(=O)[C@H](O)[C@H](c1ccccc1)N(C)C` was run?
A: > 100 µM (inactive)

Q: Which GI50 [1] does the source give for `COc1cc2cc(C(=O)N3CC(CCl)c4ccc(O)cc43)[nH]c2c(OC)c1OC` (stereo unspecified) here?
A: < 0.01 µM (active)

Q: For `c1ccc2c(C3NCCc4nc[nH]c43)cccc2c1` (stereo unspecified), which GI50 [2] is on record?
A: > 100 µM (inactive)

Q: What about the GI50 [3] of the same compound?
A: > 100 µM (inactive)

Q: What about the GI50 [7] of the same compound?
A: > 100 µM (inactive)

Q: And the GI50 [4]?
A: > 100 µM (inactive)

Q: What about the GI50 [8] of the same compound?
A: > 100 µM (inactive)

Q: And the GI50 [5]?
A: > 100 µM (inactive)

Q: And the GI50 [6]?
A: > 100 µM (inactive)

Q: `COc1ccc(S(=O)(=O)O)cc1NS(=O)(=O)c1ccc(C)cc1` was tested. Which GI50 [1] did it give?
A: > 100 µM (inactive)

Q: Which GI50 [1] does the source give for `COC(=O)[C@@H](Cc1ccccc1)N1O[C@]12CCCC[C@@H]2NC(=O)OC(C)(C)C` (stereo partly specified) here?
A: 20.4 µM (inactive)

Q: Which results are given for `CCOC(=O)C1S/C(=N\c2cccc(Cl)c2C)N=C1C` (stereo unspecified)?
A: GI50 [2]: > 10 µM (inactive); GI50 [3]: 30.4 µM (inactive); GI50 [4]: 28.7 µM (inactive); GI50 [8]: > 10 µM (inactive); GI50 [5]: 26.9 µM (inactive); GI50 [6]: 33 µM (inactive)

Q: With `CC1=CC[C@H](C(C)C)C(C(O)[C@@H](C)O[Si](c2ccccc2)(c2ccccc2)C(C)(C)C)C1=O` (stereo partly specified) as the compound, how does the GI50 [1] read?
A: 21.2 µM (inactive)

Q: `COc1cc(NC=C2C(=O)OC(C)(C)OC2=O)c(OC)c(C)c1OC` was tested. Which GI50 [1] did it give?
A: > 100 µM (inactive)

Q: How did the GI50 [1] turn out when `CC(=O)C1=C(C)O[C@@H]2O[C@H](COCc3ccccc3)[C@@H](OCc3ccccc3)[C@H](O)[C@@H]2S1` was run?
A: 22.6 µM (inactive)

Q: With `COc1ccc(/C(=N\NC(=S)NN)C(c2ccc(OC)cc2)C2C(=O)Oc3ccccc32)cc1` (stereo unspecified) as the compound, how does the GI50 [2] read?
A: > 10 µM (inactive)

Q: What about the GI50 [3] of the same compound?
A: 14.8 µM (inactive)

Q: And the GI50 [7]?
A: > 10 µM (inactive)

Q: And the GI50 [4]?
A: 7.18 µM (inactive)

Q: What about the GI50 [8] of the same compound?
A: 72.4 µM (inactive)

Q: What about the GI50 [5] of the same compound?
A: > 10 µM (inactive)

Q: What about the GI50 [6] of the same compound?
A: > 10 µM (inactive)

Q: For `CC(C)(C)c1cc(OCc2nnc3sc(Cc4ccccc4)nn23)c(Cl)cc1OCc1nnc2sc(Cc3ccccc3)nn12`, which GI50 [1] is on record?
A: 24.5 µM (inactive)

Q: For `CC(=O)OCCOCNC(=S)N/N=C(\C)c1cnccn1`, which GI50 [2] is on record?
A: 34.3 µM (inactive)

Q: And the GI50 [3]?
A: 16.8 µM (inactive)

Q: And the GI50 [7]?
A: 24.5 µM (inactive)

Q: And the GI50 [4]?
A: 25.4 µM (inactive)

Q: And the GI50 [8]?
A: 22.9 µM (inactive)

Q: And the GI50 [5]?
A: 15.9 µM (inactive)

Q: And the GI50 [6]?
A: > 100 µM (inactive)

Q: How did the GI50 [1] turn out when `[O-][S+]1SC(=S)C2C=CC=CC21` (stereo unspecified) was run?
A: 40.8 µM (inactive)

Q: What does the source list for `NNC(=O)CNC(=O)c1ccc(Cl)cc1Cl`?
A: GI50 [2]: > 100 µM (inactive); GI50 [3]: > 100 µM (inactive); GI50 [7]: > 100 µM (inactive); GI50 [4]: > 100 µM (inactive); GI50 [8]: > 100 µM (inactive); GI50 [5]: > 100 µM (inactive)

Q: Which GI50 [1] does the source give for `C=C1CC(COc2ccc3c(C)c(C)c(=O)oc3c2C)(c2ccccc2)OC1=O` (stereo unspecified) here?
A: 1.87 µM (inactive)

Q: Which GI50 [2] does the source give for `CC(C)CCC[C@@H](C)C1CCC2[C@@H]3CC=C4C[C@@H](OC(=O)CCC(=O)NCC[N+](C)(C)CCCS(=O)(=O)[O-])CC[C@]4(C)C3CC[C@@]21C` (stereo partly specified) here?
A: 21.7 µM (inactive)

Q: What about the GI50 [3] of the same compound?
A: 20.6 µM (inactive)

Q: What about the GI50 [7] of the same compound?
A: 14.7 µM (inactive)

Q: What about the GI50 [4] of the same compound?
A: 30.5 µM (inactive)

Q: What about the GI50 [8] of the same compound?
A: 27.9 µM (inactive)

Q: And the GI50 [5]?
A: 18.5 µM (inactive)

Q: What about the GI50 [6] of the same compound?
A: 24.9 µM (inactive)

Q: Which GI50 [1] does the source give for `C=C(C=O)c1c2c(nc3ccccc13)C(=O)c1ccccc1C2=O` here?
A: 0.202 µM (active)

Q: `CC(OC(C)(C)C)C(NC(=O)C(CCCCNC(=O)OC(C)(C)C)NC(=O)C(Cc1c[nH]c2ccccc12)NC(=O)C(Cc1ccccc1)NC(=O)OCC1c2ccccc2-c2ccccc21)C(=O)NC(Cc1ccccc1)C(=O)N[C@@H]1CCC[C@H]1C(=O)OCc1ccccc1` (stereo partly specified) (Fmoc-[ξF][ξW][ξK](Boc)[ξT](tBu)[ξF]-X38) was tested. Which GI50 [1] did it give?
A: > 100 µM (inactive)

Q: With `COC(=O)C1=C(C(=O)OC)C2(C)Nc3ccccc3C2=C(c2ccccc2)C1` (stereo unspecified) as the compound, how does the GI50 [2] read?
A: 30.4 µM (inactive)

Q: What about the GI50 [3] of the same compound?
A: 18.3 µM (inactive)

Q: And the GI50 [7]?
A: 21.4 µM (inactive)

Q: What about the GI50 [8] of the same compound?
A: 15.1 µM (inactive)

Q: And the GI50 [5]?
A: 24.2 µM (inactive)

Q: And the GI50 [6]?
A: 19 µM (inactive)

Q: How did the GI50 [2] turn out when `CC(O)CCC(=O)c1ccoc1` (stereo unspecified) was run?
A: 7960 µM (inactive)

Q: What about the GI50 [3] of the same compound?
A: 2610 µM (inactive)

Q: What about the GI50 [7] of the same compound?
A: 5450 µM (inactive)

Q: And the GI50 [4]?
A: 5150 µM (inactive)

Q: What about the GI50 [8] of the same compound?
A: > 1000 µM (inactive)

Q: And the GI50 [5]?
A: 5480 µM (inactive)

Q: And the GI50 [6]?
A: 5500 µM (inactive)

Q: With `COc1cc(N(CCC#N)CCC#N)ccc1/C=C1\SC(=S)NC1=O` as the compound, how does the GI50 [1] read?
A: > 100 µM (inactive)

Q: How did the GI50 [2] turn out when `CC(C)(Br)C(Br)CC/C(=C/CBr)CBr.CC(C)(Br)C(Br)CC/C(=C\CBr)CBr` (stereo unspecified) was run?
A: 3.39 µM (inactive)

Q: What about the GI50 [7] of the same compound?
A: 1.65 µM (inactive)

Q: What about the GI50 [4] of the same compound?
A: 18 µM (inactive)

Q: What about the GI50 [8] of the same compound?
A: 3.3 µM (inactive)

Q: What about the GI50 [5] of the same compound?
A: 2 µM (inactive)

Q: And the GI50 [1]?
A: 2.16 µM (inactive)

Q: And the GI50 [6]?
A: 4.46 µM (inactive)

Q: With `COc1ccc2oc(=O)c(CC=C(C)C)c(O)c2c1C` as the compound, how does the GI50 [1] read?
A: > 100 µM (inactive)

Q: `CC(C)C(=O)Oc1cc2c(=O)oc3c(OC(=O)C(C)C)c(OC(=O)C(C)C)cc4c(=O)oc(c1OC(=O)C(C)C)c2c34` was tested. Which GI50 [1] did it give?
A: > 100 µM (inactive)

Q: With `CNC(=O)Nc1ccccc1` as the compound, how does the GI50 [1] read?
A: > 100 µM (inactive)

Q: For `CC1=C[C@H]([C@H]2C=C(C)C(C(N)=O)=CN2Cc2c(Cl)cccc2Cl)N(Cc2c(Cl)cccc2Cl)C=C1C(N)=O`, which GI50 [1] is on record?
A: 48.9 µM (inactive)
